Series [1] has as its system U87 human glioma cell line. The following applies: cited from earlier work.
In series [2] the test system is U373 human glioma cell line. The following applies: cited from earlier work.
The subject of series [3] is U87 human glioma cells. The series is described as follows: cell migration assay in modified Boyden chamber. Type of series: cell-based. The procedure: Cannabidiol (CBD) in the form of a botanical drug substance was dissolved in ethanol to a concentration of 100 mM this was stored at −20° C. until required.
Before use the CBD was further diluted with tissue culture medium to the desired concentration, ensuring that the concentration of ethanol was below 0.001%.
U87 human glioma cells were used throughout this experiment. The cells were maintained at 37° C. in a humidified atmosphere with 5% CO2 and 95% air.
Cells were cultured in a 75 cm^2 culture flask in Dulbecco's Modified Eagle Medium (DMEM), which had been supplemented with 4 mM L-glutamine, 100 units/ml penicillin, […], 1% sodium pyruvate, 1% non-essential amino acids and 10% heat-inactivated fetal bovine serum.
A cell migration assay was undertaken with the U87 cells in a 48 well, modified Boyden chamber in which upper and lower compartments were separated by a polycarbonate filter with a pore diameter of 8 μm coated with 15 μg/ml of fibronectin. Conditioned medium (CM) served as a chemoattractant. The CM was made by incubating a subconfluent culture of U87 cells with complete medium for 3 days.
The coated filter was placed over the bottom chamber, which contained the conditioned medium. Serum-free medium was used as a negative control.
U87 cells were treated with either CBD or vehicle for 30 minutes and then seeded in the upper chamber at a concentration of 3×10^4 cells per well and incubated for 6 hours at 37° C.
After the incubation the non-migrated cells on the upper surface of the filter were removed by scraping and the migrated cells on the lower side of the filter were stained with Diff-Quick Stain. Between 5 and 8 unit fields per filter were counted at 400× magnification.
As is shown in FIG. 1 cells were exposed to an increased concentration of CBD in a range starting from 0.01 μM to 9 μM and their migration was evaluated after 6 hours. The degree of inhibition of cell migration is expressed as a percentage of inhibition versus vehicle treatment (maximal stimulation).

In series [4] the test system is U87 human glioma cells subcutaneously implanted to nude mice. The following applies: cited from earlier work.
Series [5] has as its system U87 human glioma cells. The series is described as follows: cell viability at the concentrations used in the migration assay. Type of series: cell-based. The conditions noted are these: range of CBD concentrations used (0.01 μM to 9 μM).
Series [6] has as its system U87 human glioma cells. The series is described as follows: cell migration assay with pre-treatment by CB1 and CB2 receptor antagonists. The conditions noted are these: antagonist 0.1 μM and 1 μM, 30 minutes pre-treatment, then CBD 6 μM. Type of series: cell-based. The procedure: In order to determine whether the CBD-induced inhibition of cell migration as described in Example 1 above was dependant on the stimulation of these receptors the cell migration assay was performed with specific antagonists selective to CB1 and CB2 receptors. These are SR141716A and SR144528 respectively.
U87 human glioma cells were firstly pre-treated with the antagonists for 30 minutes and then treated with the CBD for an additional 30 minutes before seeding in the upper chamber of the Boyden chamber.
The cell migration assay was performed using a CBD concentration of 6 μM (shown in Example 1 to inhibit 50% migration. The CB1 and CB2 receptor antagonists were tested at concentrations of 0.1 μM and 1 μM, at these concentrations cell viability was not affected.

As a reminder, the inhibition is the change of the read-out against control, counted positive when it falls. Low values mean a weak effect, high ones a strong effect.

Consider `C=C(C)[C@@H]1CCC(C)=C[C@H]1c1c(O)cc(CCCCC)cc1O` [CBD, cannabidiol], for which the anti-proliferative effects in-vitro result in series [1] and in series [2] was “anti-proliferative effects” throughout. The inhibition of migration result in the series with U87 human glioma cells [3] (CBD added to culture medium of U87 cells) is “concentration-dependant inhibition of migration”. The same molecule had an inhibition at 6 µM with U87 human glioma cells [3] (Homo sapiens, Glioma cell, CBD concentration of 6 μM) of 50%. The IC50 in the series on U87 human glioma cells [3] (Homo sapiens, U-87 MG, U87 cells, CBD 0.01 μM to 9 μM, migration evaluated after 6 hours, versus vehicle treatment, read-out: IC50 of inhibition of cell migration) turned out to be 5.05 ± 1.1 µM. Besides, the anti-proliferative effects in-vivo entry in series [4] is “anti-proliferative effects”. Further, the cell viability result in the series with U87 human glioma cells [5] was “did not alter cell viability”.
For `Cc1c(C(=O)NN2CCCCC2)nn(-c2ccc(Cl)cc2Cl)c1-c1ccc(Cl)cc1` [SR141716], the “effect of antagonist pre-treatment on CBD-induced inhibition of migration” value with U87 human glioma cells [6] is “not prevented”.
Still for that read-out and setting: for SR144528 the value was “not prevented”.
